According to patent publication US20210171576A1, “METHODS FOR TREATING CANCER WITH ACYLDEPSIPEPTIDE ANALOGS” (priority 2018, published 2021):
Where a SMILES comes first, the peptide text is derived from it. Bridges are numbered along the chain shown (N, C = ends). [ ]: non-standard residue; d: D form. The star is where a group is joined. Phe(3,5-F2) = N[C@@H](Cc1cc(F)cc(F)c1)C(=O)O; Pip(4S-Me) = C[C@H]1CCN[C@H](C(=O)O)C1; 2Nal = N[C@@H](Cc1ccc2ccccc2c1)C(=O)O; Pro(4R-Me) = C[C@H]1CN[C@H](C(=O)O)C1; X12 = O=C(/C=C/c1cccc(C(F)(F)F)c1)*; Heptenoyl(2E) = CCCC/C=C/C(=O)*; aThr = C[C@H](O)[C@H](N)C(=O)O; Pip = O=C(O)[C@@H]1CCCCN1; NMeA = CN[C@@H](C)C(=O)O; X1 = CCC/C=C/C=C/C(=O)*; Abu = CC[C@H](N)C(=O)O; Cbz = O=C(OCc1ccccc1)*; Dap = NC[C@H](N)C(=O)O; X3 = O=C(/C=C/CC1CC1)*; X9 = CCCCC#CC(=O)*

How the values were obtained:
[1] = target: T1, human mitochondrial CIpP (HsCIpP) (Homo sapiens, UniProt Q16740); assay: Screen of ADEP analogs against HsCIpP: relative degradation (RD) index, casein-FITC degradation relative to E. coli CIpAP; assay type: biochemical; design: key: casein-FITC degradation by HsClpP relative to EcClpAP; details: for Hs RD1: RD value at 1 μM of the ADEP analog; for Hs RD5: RD value at 5 μM of the ADEP analog; for Hs RD25: RD value at 25 μM of the ADEP analog, measure of ability to activate HsCIpP
T1 construct: made in house; host or cells: E. coli SG1146 (BL21(DE3) ΔclpP::cat)
T1 sequence (Q16740 57-277): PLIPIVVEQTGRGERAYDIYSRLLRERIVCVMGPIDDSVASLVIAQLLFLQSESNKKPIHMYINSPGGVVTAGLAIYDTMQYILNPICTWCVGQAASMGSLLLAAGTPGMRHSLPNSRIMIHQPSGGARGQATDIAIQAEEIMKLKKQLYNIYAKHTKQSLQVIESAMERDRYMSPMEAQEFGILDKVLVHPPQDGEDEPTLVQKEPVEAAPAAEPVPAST
From the text: Structural analogs of acyldepsipeptide (ADEP) (Goodreid et al., 2016) that were previously developed as potential antibiotics against bacterial CIpP were screened and assessed for their ability to activate and dysregulate the protease activity of HsCIpP, by measuring their relative degradation (RD) index. Note that ADEP-28 was also previously reported by Carney et al. (2014). Details of the experimental protocol have been described in Leung et al., 2011. The RD index is defined as follows: […]
Δφ is the change in fluorescence after 6 hr of starting the reaction measured using 485 nm excitation and 535 nm emission, which primarily detects the signal from casein-FITC. E. coli CIpAP was used as a benchmark for maximum CIpP proteolytic activity. The CIpP in the numerator can be from any other organism. RD25 measurements refer to the measurement in the presence of 25 μM compound. All ADEP analogs were first screened at 25 μM, and their RD25 scores were calculated using the above formula and method as described in Leung et al., 2011 (FIG. 1A). Those that achieved RD25≥0.87 were screened a second time at 5 μM, followed by calculation of their RD5 scores. The top analogs with RD5≥0.74 were screened a third time at 1 μM, followed by calculation of their RD1 scores (FIG. 1B).
To identify ADEP analogs that allow HsCIpP to degrade folded proteins independent of HsCIpX+ATP (i.e., that activate or dysregulate HsCIpP), the inventors employed the in vitro screening method that was used for identifying small molecule activators of Escherichia coli CIpP (EcCIpP) (Leung et al., 2011). In this approach, the ability of HsCIpP to degrade FITC-labeled casein (casein-FITC) was measured and compared to the ability of EcCIpAP to degrade casein-FITC. This is quantitatively expressed as relative degradation (RD) index (Leung et al., 2011).

HsCIpP [2] = target: T2, HsCIpP (Homo sapiens, UniProt Q16740, P57S); assay: Peptidase activity assay (Ac-WLA-AMC cleavage) with ADEP; assay type: biochemical; details: 6 μM HsCIpP, 100 μM Ac-WLA-AMC
T2 construct: 2x(His6-thrombin)-SUMO (N, cleaved yes); made in house; host or cells: E. coli (SG1146 stated for HsClpP; 'a similar protocol' for HsClpX)
T2 sequence (Q16740 57-277 P57S): as the sequence (Q16740 57-277) above, with P1S counted along it
Procedure: The peptidase activity of purified, untagged HsCIpP was assessed by monitoring the degradation of peptidyl substrates labelled with a C-terminal 7-amido-4-methylcoumarin (AMC) fluorophore. […] To identify a suitable peptidyl substrate, commercially available AMC-labelled peptides were purchased and tested for degradation by HsCIpP. These include N-acetyl-Trp-Leu-Ala-AMC (Ac-WLA-AMC) (R&D Systems) that was also previously used by Csizmadia et (Csizmadia et al., 2016), benzyloxycarbonyl-Arg-Arg-AMC (Z-RR-AMC) (Sigma-Aldrich), N-acetyl-Leu-Glu-His-Asp-AMC […] (Sigma-Aldrich), N-acetyl-Val-Glu-Thr-Asp-AMC (Ac-VETD-AMC) (Sigma-Aldrich), and benzyloxycarbonyl-Leu-Leu-Leu-AMC (Z-LLL-AMC) (Sigma-Aldrich). Suc-LY-AMC (MP Biomedicals) was also tested as a negative control. All stock solutions of the AMC-labelled peptides were prepared by dissolving the lyophilized peptides in DMSO at 90 mM or a lower concentration recommended by the manufacturer. […] Degradation of the peptidyl substrates and subsequent release of the free AMC moiety was monitored by fluorescence with λex=360 nm and λem=440 nm using the EnSpire 2300 Multilabel Reader (Perkin-Elmer) set to perform a reading every 30 s with 20 flashes. A total of 240 readings were collected for each of three independent replicates prepared for each peptidyl substrate. […]
Initial degradation rates data were analyzed using the Hill model. […]

HEK293 cells = details: reported (Bram et al., 2006); cited from earlier work
HsCIpP [3] = target: T2, HsCIpP; assay: Casein-FITC degradation by HsCIpP with HsCIpX titrated; assay type: biochemical; details: HsCIpX titrated 0 to 18 μM, 3 μM HsCIpP
Procedure: The protease activity of purified HsCIpP was assessed by monitoring the degradation of bovine milk casein labelled with fluorescein isothiocyanate (casein-FITC) (Sigma-Aldrich) in the presence of ADEP and/or purified HsCIpX. All reactions were carried out in 25 mM HEPES, pH 7.5, 35 mM KCl, 25 mM MgCl2, 0.03% Tween-20, 10% glycerol, and 1 mM DTT, supplemented with 16 mM creatine phosphate and 300 μM ATP. HsCIpP was used at 3 μM (final monomeric concentration) and casein-FITC was added at the final concentration of 10 μM. 13 U of creatine phosphokinase (Sigma-Aldrich) was also added for ATP regeneration. DMSO was present at 1% (v:v) final concentration in the experiments that involve the use of ADEP analogs. All reactions were carried out with 150 μL of the reaction mix per well in a 96-well black flat-bottom plate at 37° C. Degradation of casein-FITC and subsequent release of the free FITC moiety was monitored by fluorescence with λex=494 nm and λem=518 nm using the EnSpire 2300 Multilabel Reader set to perform a reading every 40 s with 20 flashes. A total of 100 readings were collected in each experiment.
To investigate the casein-FITC degradation by HsCIpXP, kinetic analysis was performed with HsCIpP held constant at 3 μM (final monomeric concentration) and HsCIpX was titrated from 0 to 18 μM (final monomeric concentration). Initial rates (v0) were determined from data collected over three independent experiments. Non-linear regression analysis was then performed on the initial rates data using the Hill equation, as follows: […]
Vmax is maximal velocity, h is the Hill coefficient, and K0.5 is the microscopic apparent dissociation constant.

Row | Hs RD1 [1] | Hs RD5 [1] | Hs RD25 [1] | Molecule | further results
1 | 0.32 | 0.78 | 1.03 | CCC/C=C/C=C/C(=O)N[C@@H](Cc1ccccc1)C(=O)N[C@H]1COC(=O)[C@@H]2C[C@@H](C)CN2C(=O)[C@H](C)NC(=O)[C@H](C)N(C)C(=O)[C@@H]2CCCN2C1=O [ADEP-04] (X1-FSP[NMeA]A[Pro(4R-Me)]; ester 2-C) | Hill coefficient (h), peptidase activity (HsCIpP [2]): 0.8
2 | – | – | 0.78 | C[C@@H]1C[C@H]2C(=O)O[C@@H](C)[C@H](NC(=O)[C@H](Cc3cc(F)cc(F)c3)NC(=O)/C=C/c3cccc(C(F)(F)F)c3)C(=O)N3CCC[C@H]3C(=O)N3CC[C@H](C)C[C@H]3C(=O)N[C@@H](C)C(=O)N2C1 [ADEP-39] (X12-[Phe(3,5-F2)][aThr]P[Pip(4S-Me)]A[Pro(4R-Me)]; ester 2-C) | –
3 | – | – | 0.06 | C[C@@H]1C[C@H]2C(=O)OC[C@H](NC(=O)[C@H](Cc3ccccc3)NC(=O)OCc3ccccc3)C(=O)N3CCC[C@H]3C(=O)N(C)[C@@H](C)C(=O)N[C@@H](C)C(=O)N2C1 [ADEP-16] (Cbz-FSP[NMeA]A[Pro(4R-Me)]; ester 2-C) | –
4 | – | – | 0.29 | CCCC/C=C/C(=O)N[C@@H](Cc1c(F)c(F)c(F)c(F)c1F)C(=O)N[C@H]1COC(=O)[C@@H]2C[C@@H](C)CN2C(=O)[C@H](C)NC(=O)[C@@H]2CCCCN2C(=O)[C@@H]2CCCN2C1=O [ADEP-45] | –
5 | 0.52 | 0.88 | 1.08 | CCCC/C=C/C(=O)N[C@H](Cc1ccccc1)C(=O)N[C@H]1COC(=O)[C@@H]2CCCN2C(=O)[C@H](C)NC(=O)[C@@H]2CCCCN2C(=O)[C@@H]2CCCN2C1=O [ADEP-02] | –
6 | – | – | 0.36 | CCCCC#CC(=O)N[C@@H](Cc1ccccc1)C(=O)N[C@H]1COC(=O)[C@@H]2CCCN2C(=O)[C@H](C)NC(=O)[C@H](C)N(C)C(=O)[C@@H]2CCCN2C1=O [ADEP-12] (X9-FSP[NMeA]AP; ester 2-C) | –
7 | 0.53 | 0.90 | 1.04 | CCC/C=C/C(=O)N[C@@H](Cc1cccc(F)c1)C(=O)N[C@H]1COC(=O)[C@@H]2C[C@@H](C)CN2C(=O)[C@H](C)NC(=O)[C@@H]2CCCCN2C(=O)[C@@H]2CCCN2C1=O [ADEP-20] | –

More lines, now with the values behind:

Row | Molecule | Hs RD1 [1] | Hs RD5 [1] | Hs RD25 [1] | further results
8 | Cc1nc(N)nc(N)c1-c1ccc(Cl)c(Cl)c1 [Metoprine] | – | – | – | IC50 (HEK293 cells): 0.8 µM
9 | CCCC/C=C/C(=O)N[C@@H](Cc1ccccc1)C(=O)N[C@H]1COC(=O)[C@@H]2CCCN2C(=O)[C@H](C)NC(=O)[C@H](C)N(C)C(=O)[C@@H]2CCCN2C1=O [ADEP-01] ({Heptenoyl(2E)}-FSP[NMeA]AP; ester 2-C) | 0.22 | 0.70 | 0.96 | –
10 | C[C@@H]1C[C@H]2C(=O)O[C@@H](C)[C@H](NC(=O)[C@H](Cc3cc(F)cc(F)c3)NC(=O)/C=C/CC3CC3)C(=O)N3CCC[C@H]3C(=O)N3CCCC[C@H]3C(=O)N[C@@H](C)C(=O)N2C1 [ADEP-13] (X3-[Phe(3,5-F2)][aThr]P[Pip]A[Pro(4R-Me)]; ester 2-C) | 0.59 | 0.91 | 1.02 | –
11 | CCCC/C=C/C(=O)N[C@@H](Cc1ccc2ccccc2c1)C(=O)N[C@H]1COC(=O)[C@@H]2C[C@@H](C)CN2C(=O)[C@H](C)NC(=O)[C@@H]2CCCCN2C(=O)[C@@H]2CCCN2C1=O [ADEP-43] ({Heptenoyl(2E)}-[2Nal]SP[Pip]A[Pro(4R-Me)]; ester 2-C) | – | 0.55 | 0.87 | –
12 | HsCIpX: the AAA+ ATPase HsCIpX, untagged human mitochondrial ClpX, partner of HsCIpP | – | – | – | Hill coefficient (h) (HsCIpP [3]): 1.25; Vmax (HsCIpP [3]): 6.88 RFU.s^−1; Kd (HsCIpP [3]; read-out: K0.5): 5.7 µM
13 | CCCC/C=C/C(=O)N[C@@H](Cc1cc(F)cc(F)c1)C(=O)N[C@H]1COC(=O)[C@@H]2C[C@@H](C)CN2C(=O)[C@H](CC)NC(=O)[C@@H]2CCCCN2C(=O)[C@@H]2CCCN2C1=O [ADEP-25] ({Heptenoyl(2E)}-[Phe(3,5-F2)]SP[Pip][Abu][Pro(4R-Me)]; ester 2-C) | 0.61 | 0.92 | 0.97 | –
14 | CCCC/C=C/C(=O)N[C@@H](Cc1cc(F)cc(F)c1)C(=O)N[C@H]1CNC(=O)[C@@H]2C[C@@H](C)CN2C(=O)[C@H](C)NC(=O)[C@@H]2CCCCN2C(=O)[C@@H]2CCCN2C1=O [ADEP-32] ({Heptenoyl(2E)}-[Phe(3,5-F2)][Dap]P[Pip]A[Pro(4R-Me)]; lactam 2-C) | 0.79 | 0.96 | 1.03 | –
15 | N.N.[Cl][Pt][Cl] [cisplatin] | – | – | – | IC50 (HEK293 cells): 0.43 µM
